What follows are compounds tested against T1, human CD73 (Homo sapiens, UniProt P21589) (assay: Inhibition of Ecto-5′-nucleotidase (CD73) activity in CHO-CD73 cells, phosphate release from AMP). Details: CHO-K1 cells stably transfected with human CD73; 25 μM AMP; 50 minutes, 37° C.; read-out: Potency: CD73 IC50.
T1 sequence (P21589 27-549): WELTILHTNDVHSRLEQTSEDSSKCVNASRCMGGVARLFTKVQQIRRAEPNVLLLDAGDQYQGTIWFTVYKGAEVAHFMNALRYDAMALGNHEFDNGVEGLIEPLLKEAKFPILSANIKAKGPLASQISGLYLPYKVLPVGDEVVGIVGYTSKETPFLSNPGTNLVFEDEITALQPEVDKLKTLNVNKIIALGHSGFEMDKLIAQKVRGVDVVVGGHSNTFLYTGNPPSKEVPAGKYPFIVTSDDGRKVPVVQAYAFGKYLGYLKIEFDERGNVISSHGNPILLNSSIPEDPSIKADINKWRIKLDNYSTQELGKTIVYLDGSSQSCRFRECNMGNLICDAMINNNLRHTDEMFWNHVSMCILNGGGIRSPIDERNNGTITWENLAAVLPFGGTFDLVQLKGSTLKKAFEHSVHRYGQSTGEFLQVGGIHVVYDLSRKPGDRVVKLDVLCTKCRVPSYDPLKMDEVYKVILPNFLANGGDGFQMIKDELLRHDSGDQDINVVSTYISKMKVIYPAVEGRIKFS
Type: cell-based

IC50 [µM] | SMILES
0.1 to 1 | N#Cc1ccc(Cn2nccc2-c2cc(F)c3nnn(-c4ccc5[nH]c(=O)[nH]c5c4)c3c2)c(-c2ncco2)c1 [Example 299]
> 1 | CC(O)c1ccc(Cn2nccc2-c2cc(F)c3nnn(-c4ccc5[nH]c(=O)[nH]c5c4)c3c2)cc1 (stereo not shown) [Example 182]
0.1 to 1 | N#Cc1cnc(Cn2nccc2-c2cc(Cl)c3nnn(-c4ccc5[nH]c(=O)[nH]c5c4)c3c2)c(Cl)c1 [Example 269]
> 1 | O=c1[nH]c2ccc(-n3nnc4c(F)cc(-c5ccnn5Cc5cccc6cn[nH]c56)cc43)cc2[nH]1 [Example 242]
> 1 | N#Cc1ccc(Cn2nccc2-c2cc(Cl)c3nnn(-c4ccc5[nH]c(=O)[nH]c5c4)c3c2)c(N2CCOCC2)c1 [Example 288]
0.1 to 1 | N#Cc1ccc(Cn2nccc2-c2ccc3nnn(-c4ccc5[nH]c(=O)[nH]c5c4)c3c2)c(F)c1 [Example 240]
0.1 to 1 | CC(C)c1cccc(-n2nccc2-c2cc(Cl)c3nnn(-c4ccc5[nH]c(=O)[nH]c5c4)c3c2)c1 [Example 258]
> 1 | O=c1[nH]c2ccc(-n3nnc4c(F)cc(-c5ccnn5Cc5ccc(F)cn5)cc43)cc2[nH]1 [Example 174]
> 1 | O=c1[nH]c2ccc(-n3nnc4c(Cl)cc(-c5ccnn5Cc5cccc[n+]5[O-])cc43)cc2[nH]1 [Example 265]
> 1 | N#Cc1cnc(Cn2nccc2-c2cc(F)c3nnn(-c4ccc5[nH]c(=O)[nH]c5c4)c3c2)c2ccccc12 [Example 318]
0.1 to 1 | O=c1[nH]c2ccc(-n3nnc4c(Cl)cc(-c5ccnn5Cc5ccc(F)c(F)c5)cc43)cc2[nH]1 [Example 254]
0.1 to 1 | COc1ccc(Cn2nccc2-c2cc(F)c3nnn(-c4ccc5[nH]c(=O)[nH]c5c4)c3c2)c(F)c1 [Example 245]
0.1 to 1 | N#Cc1ccc(Cn2nccc2-c2cc(Cl)c3nnn(-c4ccc5[nH]c(=O)[nH]c5c4)c3c2)cc1 [Example 188]
0.1 to 1 | N#Cc1ccc(Cn2nccc2-c2cnc3c(CO)nn(-c4ccc5[nH]c(=O)[nH]c5c4)c3c2)cc1 [Example 336]
0.1 to 1 | N#Cc1ccc(Cn2nccc2-c2cc(F)c3nnn(-c4ccc5[nH]c(=O)[nH]c5c4)c3c2)c(F)c1 [Example 239]
0.1 to 1 | O=c1[nH]c2ccc(-n3nnc4c(Cl)cc(-c5ccnn5Cc5ccncc5F)cc43)cc2[nH]1 [Example 238]
0.1 to 1 | O=c1[nH]c2ccc(-n3nnc4c(Cl)cc(-c5ccnn5Cc5ccc(Cl)c[n+]5[O-])cc43)cc2[nH]1 [Example 369]
> 1 | N#Cc1ccc(Cn2nccc2-c2cc(F)c3nnn(-c4ccc5[nH]c(=O)[nH]c5c4)c3c2)c(CN2CCCC2)c1 [Example 278]
0.1 to 1 | N#Cc1ccc(Cn2nccc2-c2cc(F)c3nnn(-c4ccc5[nH]c(=O)[nH]c5c4)c3c2)c(CNC2CCCC2)c1 [Example 286]
0.1 to 1 | Cc1cc(-n2nccc2-c2cc(Cl)c3nnn(-c4ccc5[nH]c(=O)[nH]c5c4)c3c2)ccn1 [Example 293]
> 1 | O=c1[nH]c2ccc(-n3nnc4c(Cl)cc(-c5ccnn5-c5cccc6cccnc56)cc43)cc2[nH]1 [Example 213]
0.1 to 1 | N#Cc1ccc(Cn2nccc2-c2cnc3c(N)nn(-c4ccc5[nH]c(=O)[nH]c5c4)c3c2)nc1 [Example 315]
0.1 to 1 | O=c1[nH]c2ccc(-n3nnc4c(F)cc(-c5ccnn5Cc5ccc(F)cn5)cc43)cc2[nH]1 [Example 173]
> 1 | O=c1[nH]c2ccc(-n3nnc4c(F)cc(-c5ccnn5CCc5cccc(Cl)c5)cc43)cc2[nH]1 [Example 215]
0.1 to 1 | Cc1cnc(-c2cc(C#N)ccc2Cn2nccc2-c2cc(F)c3nnn(-c4ccc5[nH]c(=O)[nH]c5c4)c3c2)o1 [Example 321]

Further lines, the compound ahead of its results:

SMILES | IC50 [µM]
Cn1nc(-c2ccc3[nH]c(=O)[nH]c3c2)c2cc(-c3ccnn3Cc3ccc(C#N)cc3)ncc21 [Example 327] | 0.1 to 1
OC(Cn1nccc1-c1cc(F)c2nnn(-c3ccc4cn[nH]c4c3)c2c1)c1ccccc1 (stereo not shown) [Example 375] | > 1
N#Cc1ccc(Cn2nccc2-c2cnc3c(C(F)(F)F)nn(-c4ccc5cn[nH]c5c4)c3c2)cc1 [Example 376] | > 1
Cn1nc(-c2ccc3cn[nH]c3c2)c2cc(-c3ccnn3Cc3ccc(C#N)cc3)c[n+]([O-])c21 [Example 361] | > 1
Cn1c(-c2ccnn2Cc2ccc(C#N)cc2)cc2c(nnn2-c2ccc3cn[nH]c3c2)c1=O [Example 356] | 0.1 to 1
N#Cc1ccc(Cn2nccc2-c2cc(F)c3nnn(-c4ccc5c(CC(=O)O)n[nH]c5c4)c3c2)cc1 [Example 348] | > 1
Clc1cc(-c2ccnn2CCc2ccccc2)cc2c1nnn2-c1ccc2cn[nH]c2c1 [Example 124] | 0.1 to 1
N#Cc1ccc(Cn2nccc2-c2cc(C(F)(F)F)c3nnn(-c4ccc5cn[nH]c5c4)c3c2)nc1 [Example 125] | 0.1 to 1
N#Cc1ccc(Cn2nccc2-c2cc(F)c3nnn(-c4ccc5cn[nH]c5n4)c3c2)cc1 [Example 367] | < 0.1
CC(c1ccccc1)n1nccc1-c1ccc2nnn(-c3ccc4cn[nH]c4c3)c2c1 (stereo not shown) [Example 72] | > 1
CC(Cn1nccc1-c1cc(F)c2nnn(-c3ccc4cn[nH]c4c3)c2c1)c1ccccc1 (stereo not shown) [Example 385] | > 1
N#Cc1cccc(-n2nccc2-c2cc3c(cc2Cl)nnn3-c2ccc3cn[nH]c3c2)c1 [Example 403] | > 1
N#Cc1ccc(Cn2cccc2-c2cc(F)c3nnn(-c4ccc5[nH]c(=O)[nH]c5c4)c3c2)cc1 [Example 328] | 0.1 to 1
Clc1ccc(Cn2nccc2-c2cc(Cl)c3nnn(-c4ccc5cn[nH]c5c4)c3c2)c(Br)c1 [Example 109] | 0.1 to 1
Fc1cc(-c2ccnn2Cc2ccc(Cl)cn2)cc2c1cnn2-c1ccc2cn[nH]c2c1 [Example 133] | > 1
Clc1cc(-c2ccnn2Cc2ccccn2)cc2c1nnn2-c1ccc2cn[nH]c2c1 [Example 45] | 0.1 to 1
Cc1ccc(Cn2nccc2-c2cc3c(cc2F)nnn3-c2ccc3cn[nH]c3c2)[n+]([O-])c1 [Example 397] | 0.1 to 1
N#Cc1ccc(Cn2nccc2-c2cc3c(cc2F)nnn3-c2ccc3cn[nH]c3c2)cc1 [Example 378] | < 0.1
Fc1cc(Cl)ccc1Cn1nccc1-c1cc(F)c2nnn(-c3ccc4cn[nH]c4c3)c2c1 [Example 76] | < 0.1
O=C(O)c1n[nH]c2cc(-n3nnc4c(Cl)cc(-c5ccnn5Cc5ccc(Cl)cc5Cl)cc43)ccc12 [Example 127] | > 1
N#Cc1ccc(Cn2ncc(C#N)c2-c2cc(F)c3nnn(-c4ccc5[nH]c(=O)[nH]c5c4)c3c2)cc1 [Example 330] | > 1

SMILES | IC50 [µM]
Cn1nc(-c2ccc3cn[nH]c3c2)c2cc(-c3ccnn3Cc3ccc(C#N)cc3)cnc21 [Example 341] | 0.1 to 1
N#Cc1ccc(Cn2nccc2-c2cc(F)c3nnn(-c4ccc5c(CNS(N)(=O)=O)n[nH]c5c4)c3c2)cc1 [Example 347] | > 1
Cc1nn(-c2ccc3cn[nH]c3c2)c2cc(-c3ccnn3Cc3ccc(Cl)cc3)cnc12 [Example 386] | 0.1 to 1
N#Cc1ccc(Cn2nccc2-c2cc(F)c3nnn(-c4ccc5[nH]c(=O)[nH]c5c4)c3c2)c(CNCC2CCCC2)c1 [Example 296] | 0.1 to 1
N#Cc1ccc(Cn2nccc2-c2cc3c(c[n+]2[O-])nnn3-c2ccc3cn[nH]c3c2)cc1 [Example 363] | 0.1 to 1
N#Cc1ccc(C(CO)n2nccc2-c2cc(F)c3nnn(-c4ccc5cn[nH]c5c4)c3c2)cc1 (stereo not shown) [Example 419] | 0.1 to 1
Cc1ccc(F)c(-n2nccc2-c2cc(F)c3nnn(-c4ccc5cn[nH]c5c4)c3c2)c1 [Example 388] | > 1
Cc1cc2nnn(-c3ccc4cn[nH]c4c3)c2cc1-c1ccnn1C(C)c1ccc(C#N)cc1 (stereo not shown) [Example 398] | > 1
Cc1cc(C)cc(-n2nccc2-c2cc(F)c3nnn(-c4ccc5[nH]c(=O)[nH]c5c4)c3c2)c1 [Example 226] | 0.1 to 1
N#Cc1ccc(Cn2nccc2-c2cnc3c(N)nn(-c4cc5[nH]c(=O)[nH]c5cc4F)c3c2)c(F)c1 [Example 339] | < 0.1
Fc1cc(-c2ccnn2Cc2ccccc2)cc2c1nnn2-c1cnc2cn[nH]c2c1 [Example 137] | > 1
Fc1cc(-c2ccnn2Cc2ccccn2)cc2c1nnn2-c1ccc2cn[nH]c2c1 [Example 85] | 0.1 to 1
CCNc1nn(-c2ccc3cn[nH]c3c2)c2cc(-c3ccnn3Cc3ccc(C#N)cc3)cnc12 [Example 425] | > 1
Cc1nn(-c2ccc3cn[nH]c3c2)c2cc(-c3ccnn3Cc3ccc(C#N)cc3)c[n+]([O-])c12 [Example 360] | 0.1 to 1
CC(c1ccc(Cl)c[n+]1[O-])n1nccc1-c1cc(Cl)c2nnn(-c3ccc4cn[nH]c4c3)c2c1 (stereo not shown) [Example 379] | 0.1 to 1
Fc1cc(-c2ccnn2Cc2ccc(Cl)cc2)cc2c1nnn2-c1ccc2cn[nH]c2c1 [Example 64] | < 0.1
N#Cc1ccc(Cn2nccc2-c2cc(Cl)c3nnn(-c4ccnc(N)c4)c3c2)nc1 [Example 145] | > 1
Cn1c(=O)n(-c2ccc3cn[nH]c3c2)c2cc(-c3ccnn3Cc3ccc(C#N)cc3)cnc21 [Example 332] | > 1
Cc1cccc(-n2ncc(Cl)c2-c2cc(F)c3nnn(-c4ccc5cn[nH]c5c4)c3c2)c1 [Example 413] | 0.1 to 1
FC(F)(F)Oc1ccccc1Cn1nccc1-c1cc(Cl)c2nnn(-c3ccc4cn[nH]c4c3)c2c1 [Example 53] | 0.1 to 1
Fc1cc(Cn2nccc2-c2ccc3nnn(-c4ccc5cn[nH]c5c4)c3c2)ccc1Cl [Example 58] | < 0.1
